Assays:
Assay type in all cases: cell-based
[1] = test system: Cardiac microvascular endothelial cells (HCMEC); assay: apoptosis ELISA measuring DNA fragmentation in HCMEC exposed to conditioned milieu (cocktail); conditions: HCMEC exposed 30 hours to cocktail (C-reactive protein, TNF-alpha, IL-1β, endothelin-1, galectin-3); treated at 2, 4, 6, 10 or 24 hours; FIG. 1
Protocol: (§1) Cardiac microvascular endothelial cells (“HCMEC”) were exposed for 30 hours to a conditioned milieu (“cocktail”) containing a selection of factors (C-reactive protein at 10 μg/ml, TNF-alpha at 10 μg/ml, IL-1β at 10 ng/ml, endothelin-1 at 10 pg/ml and galectin-3 at 20 ng/ml) found in the plasma of ADHF patients. […] The cells from each exposure were harvested at 30 hours for experimental data. Experimental readouts included apoptosis, total protein nitrosylation and lactate dehydrogenase (“LDH”) assay.
In the data represented by FIG. 1, apoptosis was assessed by performing an ELISA (enzyme-linked immunosorbent assay) measuring DNA fragmentation.

[2] = test system: Cardiac microvascular endothelial cells (HCMEC); assay: LDH assay: LDH release into culture medium by spectrophotometry; conditions: HCMEC exposed 30 hours to cocktail; treatment at two hours; FIG. 3
Protocol: as §1
FIG. 3 depicts a LDH assay that was performed by measuring LDH release (by spectrophotometry) in the medium where cells were cultured. LDH is a cytoplasmic enzyme released by cells following membrane damage (i.e., cell death).

[3] = test system: Cardiac microvascular endothelial cells (HCMEC); assay: total protein nitrosylation by western blotting in HCMEC exposed to cocktail; conditions: HCMEC exposed 30 hours to cocktail; treated at 2, 4, 6, 10 or 24 hours; FIG. 2
Protocol: as §1
The data represented by FIG. 2 is directed to protein nitrosylation which is a postranlational modification caused by peroxynitrite. Peroxynitrite (ONOO^−) results from the scavenging action of superoxide anion (O2^−) on nitric oxide (NO) and results in a decreased bioavailability of the latter. Protein Nitrosylation has several deleterious effects on key vasoactive factors and their function, e.g. prostacyclin synthase is inactivated by nitrosylation.

For relaxin, the “cocktail-induced apoptosis (DNA fragmentation ELISA)” value [1] was “decrease cocktail-induced apoptosis”, the “LDH release (cell death)” value [2] was “increase in cell death” and the “protein nitrosylation (western blotting)” value [3] was “antioxidant property that decreases over time”.

— patent US20140213520A1, “METHODS OF TREATING CARDIOVASCULAR INDICATIONS” (Cardiorentis Ltd., priority 2013, published 2014)
